Test results taken from patent publication US7183252B2, “Indole peptidomimetics as thrombin receptor antagonists” (Ortho-McNeil Pharmaceutical, Inc., priority 1999, dated 2007).
pIC50: −log10 of the molar value. Where two headings read alike, the source gives them in different places.

Assays:
gel-filtered platelets = assay: In vitro inhibition of thrombin-induced gel-filtered platelet aggregation; type: cell-based; conditions: human gel-filtered platelets, agonist thrombin 50 μL of 1 unit/mL, read-out: Thrmb IC50 (Thrombin-induced aggregation of gel-filtered platelets)
Description: In Vitro Inhibition of Thrombin-Induced Gel-Filtered Platelet Aggregation Assay
The percentage of platelet aggregation is calculated as an increase in light transmission of compound-treated platelet concentrate vs. control-treated platelet concentrate. Human blood is obtained from drug free, normal donors in tubes containing 0.13M sodium citrate. Platelet rich plasma (PRP) is collected by centrifugation of whole blood at 200×g for 10 min at 25° C. The PRP (5 mL) is gel filtered through Sepharose 2B (bed volume 50 mL), and the platelet count is adjusted to 2×10^7 platelets per sample. The following constituents are added to a siliconized cuvette: concentrated platelet filtrate and Tyrode's buffer (0.14M NaCl, 0.0027M KCl, 0.012M NaHCO3, 0.76 mM Na2HPO4, 0.0055M glucose, 2 mg/mL BSA and 5.0 mM HEPES @ pH 7.4) in an amount equal to 350 μL 50 μL of 20 mM calcium and 50 μL of the test compound. Aggregation is monitored in a BIODATA aggregometer for the 3 min following the addition of agonist (thrombin 50 μL of 1 unit/mL).
(§1) Table 7 contains IC50 values (μM) of the compounds in a thrombin receptor binding assay, and IC50 values (μM) against platelet aggregation stimulated by thrombin.

[1] = target: T1, thrombin receptor (PAR-1) (Homo sapiens, UniProt P25116); assay: In vitro thrombin receptor binding assay (CHRF membranes); conditions: tritiated 721-40 radioligand, read-out: Bndg IC50 (Thrombin receptor binding)
T1 construct: CHRF membranes (Jones, Biochim. Biophys. Acta 1992, 1136, 272) are thawed from −70° C; endogenous in cells; host or cells: CHRF cell membranes
T1 sequence (P25116 22-425): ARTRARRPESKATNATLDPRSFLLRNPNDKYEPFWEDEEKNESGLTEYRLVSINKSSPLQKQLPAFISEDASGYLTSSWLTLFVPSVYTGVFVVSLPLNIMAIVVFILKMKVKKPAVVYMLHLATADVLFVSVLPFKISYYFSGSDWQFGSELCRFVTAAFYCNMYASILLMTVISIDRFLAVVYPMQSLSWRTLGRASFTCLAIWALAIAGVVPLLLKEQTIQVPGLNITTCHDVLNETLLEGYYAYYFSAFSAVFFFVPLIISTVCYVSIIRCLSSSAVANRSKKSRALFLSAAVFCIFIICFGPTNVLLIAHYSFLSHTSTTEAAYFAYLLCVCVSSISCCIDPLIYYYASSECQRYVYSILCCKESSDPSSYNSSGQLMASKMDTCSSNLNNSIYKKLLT
Description: In Vitro Thrombin Receptor Binding Assay
CHRF membranes (Jones, Biochim. Biophys. Acta 1992, 1136, 272) are thawed from −70° C., centrifuged at maximum speed for 5 min, washed twice with binding buffer (50 mM HEPES containing 5 mM MgCl2 and 0.1% BSA), and re-suspended in binding buffer (25 μg/[…]). 100 μL of membranes are added to the 24-Wallac plates and delivered to the Tomtech apparatus. In a typical experiment, 6 μL of samples (from a 125 μg/mL intermediary plate, 20% DMSO) and 44 μL buffer are delivered to the plates (final conc. of compounds is 3.7 μg/mL, 0.6% DMSO). Similarly, 6 μL 20% DMSO and 44 μL buffer are delivered to both column 1 (NSB) and column 12 (TB). 10 μL Ser-pFPhe-Har-Leu-Har-Lys-Tyr-NH2 (721–40; 500 μM in deionized water) is added to column 1. 50 μL tritiated 721–40 (specific activity 46 Ci/mmol) is added to all the wells. The plates are mixed well for 20 seconds, incubated for 30 min,and then harvested with 10 mM HEPES/138 mM NaCl using the Skatron harvester. The filters (GF/C Brandel FPXLR 296) are presoaked 3 h in 0.5% polyethylenimine in HEPES/0.1M N-acetylglucosamine) are set in saran wrap and dried for 3 min in the microwave, and placed in sample bags (Wallac 1450-432). 4.5 mL scintillation fluid (Wallac, Betaplate Scint 1205-440) is added. The bags are sealed, placed in filter cassettes (Wallac 1450-104), and analyzed on the microbeta counter.
as §1

N=C(N)NCCC[C@H](NC(=O)CCNC(=O)[C@H](Cc1ccc(F)c(F)c1)NC(=O)Nc1ccc2c(CN3CCCC3)cn(Cc3c(Cl)cccc3Cl)c2c1)C(=O)NCc1ccccc1 [Compound 108]
pIC50 (gel-filtered platelets; Platelet): 5.43
pIC50 [1]: 5.59

COC(=O)c1ccc(Cn2cc(CN3CCCCC3)c3ccc(NC(=O)N[C@@H](Cc4ccc(OC)cc4)C(=O)N[C@@H](CCCN=C(N)N)C(=O)NCC4CCCCC4)cc32)cc1 [Compound 10]
pIC50 (gel-filtered platelets; Platelet): < 5.00
pIC50 [1]: 5.32

COc1ccc(C[C@H](NC(=O)Nc2ccc3c(CN4CCCC4)cn(Cc4ccc(F)c(F)c4)c3c2)C(=O)N[C@@H](CCCNC(=N)N)C(=O)NCc2ccccc2)cc1 [Compound 21]
pIC50 (gel-filtered platelets; Platelet): 5.49
pIC50 [1]: 5.96

Cc1ccccc1Cn1cc(CN2CCCC2)c2cccc(NC(=O)N[C@@H](Cc3ccc(F)c(F)c3)C(=O)N[C@@H](CCN)C(=O)NCc3ccccc3)c21 [Compound 168]
pIC50 (gel-filtered platelets; Platelet): 5.08
pIC50 [1]: 4.19

NCC[C@H](NC(=O)[C@H](Cc1cscn1)NC(=O)Nc1ccc2c(CN3CCCC3)cn(Cc3c(Cl)cccc3Cl)c2c1)C(=O)NCc1ccccc1 [Compound 132]
pIC50 (gel-filtered platelets; Platelet): 4.66
pIC50 [1]: 5.38

CC(C)NCCCC[C@H](NC(=O)[C@H](Cc1ccc(F)c(F)c1)NC(=O)Nc1ccc2c(CN3CCCCC3)cn(Cc3c(Cl)cccc3Cl)c2c1)C(=O)NCc1ccccc1 [Compound 67]
pIC50 (gel-filtered platelets; Platelet): 6.38
pIC50 [1]: 6.35

Nc1ccc(C[C@H](NC(=O)[C@H](Cc2ccc(F)c(F)c2)NC(=O)Nc2ccc3c(CN4CCCC4)cn(Cc4c(Cl)cccc4Cl)c3c2)C(=O)NCc2ccccc2)cc1 [Compound 106]
pIC50 (gel-filtered platelets; Platelet): 5.96
pIC50 [1]: 5.48

COc1ccc(C[C@H](NC(=O)Nc2ccc3c(CN4CCCC4)cn(Cc4ccc(Cl)cc4)c3c2)C(=O)N[C@@H](CCCNC(=N)N)C(=O)NCc2ccccc2)cc1 [Compound 19]
pIC50 (gel-filtered platelets; Platelet): 5.49
pIC50 [1]: 5.80

NC[C@H](NC(=O)[C@H](Cc1ccc(Cl)cc1)NC(=O)Nc1ccc2c(CN3CCCC3)cn(Cc3c(Cl)cccc3Cl)c2c1)C(=O)NCc1ccccc1 [Compound 79]
pIC50 (gel-filtered platelets; Platelet): 5.89
pIC50 [1]: 6.77

NC[C@H](NC(=O)[C@H](Cc1ccc(F)c(F)c1)NC(=O)Nc1ccc2c(CN3CCCC3)cn(Cc3c(Cl)cccc3Cl)c2c1)C(=O)NCc1ccccc1 [Compound 101]
pIC50 (gel-filtered platelets; Platelet): 6.39
pIC50 [1]: 6.04

CSCC[C@H](NC(=O)[C@H](Cc1ccc(F)c(F)c1)NC(=O)Nc1ccc2c(CN3CCCC3)cn(Cc3c(Cl)cccc3Cl)c2c1)C(=O)NCc1ccccc1 [Compound 104]
pIC50 (gel-filtered platelets; Platelet): 6.28
pIC50 [1]: 4.95

NCC[C@H](NC(=O)[C@H](Cc1ccc(F)c(F)c1)NC(=O)Nc1cccc2c(CN3CCCC3)cn(Cc3c(Cl)cccc3Cl)c12)C(=O)NCc1ccccc1 [Compound 167]
pIC50 (gel-filtered platelets; Platelet): 5.07
pIC50 [1]: 4.17

Cc1ccccc1Cn1c(Cl)c(CN2CCCC2)c2ccc(NC(=O)N[C@@H](Cc3cccc(F)c3)C(=O)N[C@@H](CCCN=C(N)N)C(=O)NCc3ccc(F)cc3)cc21 [Compound 173]
pIC50 (gel-filtered platelets; Platelet): 5.70
pIC50 [1]: 6.12

NCC[C@H](NC(=O)[C@H](Cc1ccc(F)c(F)c1)NC(=O)Nc1ccc2c(CN3CCSC3)cn(Cc3c(Cl)cccc3Cl)c2c1)C(=O)NCc1ccccc1 [Compound 154]
pIC50 (gel-filtered platelets; Platelet): 4.89
pIC50 [1]: 6.12

NCC[C@H](NC(=O)[C@H](Cc1ccc(F)c(F)c1)NC(=O)Nc1ccc2c(CN3CCCC3)cn(Cc3c(Cl)cccc3Cl)c2c1)C(=O)NCc1ccc([N+](=O)[O-])cc1 [Compound 158]
pIC50 (gel-filtered platelets): 6.13
pIC50 [1]: 5.74

Cc1ccccc1Cn1cc(CN2CCCC2)c2ccc(NC(=O)N[C@@H](Cc3ccc(OCc4ccccc4)cc3)C(=O)N[C@@H](CCCN=C(N)N)C(=O)NCc3ccccc3)cc21 [Compound 36]
pIC50 (gel-filtered platelets; Platelet): 5.17
pIC50 [1]: 4.78

CN(C)CCC[C@H](NC(=O)[C@H](Cc1ccc(F)c(F)c1)NC(=O)Nc1ccc2c(CN3CCCC3)cn(Cc3c(Cl)cccc3Cl)c2c1)C(=O)NCc1ccccc1 [Compound 100]
pIC50 (gel-filtered platelets; Platelet): 6.22
pIC50 [1]: 5.89

COc1ccc(C[C@H](NC(=O)Nc2ccc3c(CN4CCCC4)cn(Cc4ccc(F)cc4)c3c2)C(=O)N[C@@H](CCCNC(=N)N)C(=O)NCCCc2ccccc2)cc1 [Compound 4]
pIC50 (gel-filtered platelets; Platelet): 4.83
pIC50 [1]: 5.89

C=CCOC(=O)[C@H](CCCN)NC(=O)[C@H](Cc1ccc(F)c(F)c1)NC(=O)Nc1ccc2c(CN3CCCC3)cn(Cc3c(Cl)cccc3Cl)c2c1 [Compound 93]
pIC50 (gel-filtered platelets; Platelet): 6.13
pIC50 [1]: 6.30

COc1ccc(C[C@H](NC(=O)Nc2ccc3c(CN4CCCC4)cn(Cc4ccc(OC(F)(F)F)cc4)c3c2)C(=O)N[C@@H](CCCNC(=N)N)C(=O)NCC2CCCCC2)cc1 [Compound 11]
pIC50 (gel-filtered platelets): 4.70
pIC50 [1]: 5.60

COc1ccc(C[C@H](NC(=O)Nc2ccc3c(CN(C)CCCN(C)C)cn(Cc4ccc(F)cc4)c3c2)C(=O)N[C@@H](CCCNC(=N)N)C(=O)NCc2ccccc2)cc1 [Compound 32]
pIC50 (gel-filtered platelets; Platelet): 4.31
pIC50 [1]: 5.14

Cc1ccccc1Cn1c(Cl)c(CN2CCCC2)c2ccc(NC(=O)N[C@@H](Cc3ccc(F)c(F)c3)C(=O)N[C@@H](CCCNC(=N)N)C(=O)NCc3ccccc3)cc21 [Compound 172]
pIC50 (gel-filtered platelets; Platelet): < 5.00
pIC50 [1]: 5.17

N=C(N)NCCC[C@H](NC(=O)[C@H](Cc1ccccc1F)NC(=O)Nc1ccc2c(CN3CCCC3)cn(Cc3c(Cl)cccc3Cl)c2c1)C(=O)NCc1ccccc1 [Compound 51]
pIC50 (gel-filtered platelets; Platelet): 6.17
pIC50 [1]: 6.10

COc1ccc(C[C@H](NC(=O)Nc2ccc3c(CN4CCCC4)cn(Cc4ccc(S(C)(=O)=O)cc4)c3c2)C(=O)N[C@@H](CCCNC(=N)N)C(=O)NCc2ccccc2)cc1 [Compound 12]
pIC50 (gel-filtered platelets; Platelet): 4.36
pIC50 [1]: 4.80

CC(=N)NCC[C@H](NC(=O)[C@H](Cc1ccc(F)c(F)c1)NC(=O)Nc1ccc2c(CN3CCCC3)cn(Cc3c(Cl)cccc3Cl)c2c1)C(=O)NCc1ccccc1 [Compound 118]
pIC50 (gel-filtered platelets; Platelet): 6.55
pIC50 [1]: 6.37

CCCCCCCCNC(=O)[C@H](CCCNC(=N)N)NC(=O)[C@H](Cc1ccc(F)c(F)c1)NC(=O)Nc1ccc2c(CN3CCCCC3)cn(Cc3ccc(F)cc3)c2c1 [Compound 73]
pIC50 (gel-filtered platelets; Platelet): 5.62
pIC50 [1]: 5.12

COc1ccc(C[C@H](NC(=O)Nc2ccc3c(CN4CCCC4)cn(Cc4ccc5ccccc5c4)c3c2)C(=O)N[C@@H](CCCNC(=N)N)C(=O)NCc2ccccc2)cc1 [Compound 15]
pIC50 (gel-filtered platelets; Platelet): 4.93
pIC50 [1]: 5.37

NCCC[C@H](NC(=O)[C@H](Cc1ccc(F)c(F)c1)NC(=O)Nc1ccc2c(CN3CCCC3)cn(Cc3c(Cl)cccc3Cl)c2c1)C(=O)N1CCCCC1 [Compound 115]
pIC50 (gel-filtered platelets; Platelet): 5.57
pIC50 [1]: 6.43

COc1ccccc1CCNC(=O)[C@H](CCCNC(=N)N)NC(=O)[C@H](Cc1ccc(F)c(F)c1)NC(=O)Nc1ccc2c(CN3CCCC3)cn(Cc3ccccc3C)c2c1 [Compound 65]
pIC50 (gel-filtered platelets; Platelet): 6.00
pIC50 [1]: 6.66

COc1ccc(C[C@H](NC(=O)Nc2ccc3c(CN4CCCC4)cn(Cc4ccc(C)cc4)c3c2)C(=O)N[C@@H](CCCN=C(N)N)C(=O)NCc2ccccc2)cc1 [Compound 2]
pIC50 (gel-filtered platelets; Platelet): 5.11
pIC50 [1]: 4.47

NCC[C@H](NC(=O)[C@H](Cc1ccc(F)c(F)c1)NC(=O)Nc1ccc2c(c1)c(CN1CCCC1)cn2Cc1ccc(F)cc1)C(=O)NCc1ccccc1 [Compound 164]
pIC50 (gel-filtered platelets; Platelet): 4.87
pIC50 [1]: 4.93

Cc1ccccc1Cn1cc(CN2CCCC2)c2ccc(NC(=O)N[C@@H](Cc3cccc4ccccc34)C(=O)N[C@@H](CCCNC(=N)N)C(=O)NCc3ccccc3)cc21 [Compound 37]
pIC50 (gel-filtered platelets; Platelet): 5.36
pIC50 [1]: 4.69
